Assay results as given in patent US20240041042A1, “1-(PYRIDYL)-5-AZINYLPYRAZOLE DERIVATIVES, AND THEIR USE FOR CONTROL OF UNDESIRED PLANT GROWTH” (Bayer Aktiengesellschaft, priority 2020, published 2024).
Like-named read-outs stand apart in the source and are kept apart here.

Experiments:
Format in all cases: in vivo
[1] = tested on: Abutilon theophrasti (ABUTH); assay: Pre-emergence herbicidal action against ABUTH; conditions: Dosage column 320 g/ha (title prints 3200 g/ha); scored visually after about 3 weeks; 100% = plants have died
Excerpt: Seeds of monocotyledonous and dicotyledonous weed plants and crop plants are placed in plastic or organic planting pots and covered with soil. The compounds of the invention, formulated in the form of wettable powders (WP) or as emulsion concentrates (EC), are then applied to the surface of the covering soil as aqueous suspension or emulsion with addition of 0.5% additive at a water application rate equivalent to 600 l/ha. After the treatment, the pots are placed in a greenhouse and kept under good growth conditions for the trial plants. After about 3 weeks, the effect of the preparations is scored visually in comparison with untreated controls as percentages. For example, 100% activity=the plants have died, 0% activity=like control plants.
Tables A1 to A13 below show the effects of selected compounds of the general formula (I) on various harmful plants and at an application rate corresponding to 320 g/ha or lower, which were obtained by the experimental procedure mentioned above. The appendices “a”, “b” and “c” give differentiation by dosage used with otherwise the same harmful plants tested.

[2] = tested on: Alopecurus myosuroides (ALOMY); assay: Pre-emergence herbicidal action against ALOMY; conditions: scored visually after about 3 weeks, 100% = plants have died
In short: (§1)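 Pre-emergence soil-surface spray, WP/EC formulation, 0.5% additive, 600 l/ha water, rates of 320 g/ha or lower. Greenhouse, ~3 wk. Visual score, % of untreated control (100% = plants dead, 0% = like control).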

[3] = tested on: Amaranthus retroflexus (AMARE); assay: Pre-emergence herbicidal action against AMARE; conditions: visual scoring after about 3 weeks vs untreated controls
In short: as §1

Avena fatua (AVEFA) [4] = assay: Pre-emergence herbicidal action against AVEFA; conditions: visual scoring after about 3 weeks vs untreated controls
In short: as §1

[5] = tested on: Echinochloa crus-galli (ECHCG); assay: Pre-emergence herbicidal action against ECHCG
In short: as §1

[6] = tested on: Matricaria inodora (MATIN); assay: Pre-emergence herbicidal action against MATIN
In short: as §1

[7] = tested on: Pharbitis purpurea (PHBPU); assay: Pre-emergence herbicidal action against PHBPU
In short: as §1

[8] = tested on: Polygonum convolvulus (POLCO); assay: Pre-emergence herbicidal action against POLCO
In short: as §1

Setaria viridis (SETVI) [9] = assay: Pre-emergence herbicidal action against SETVI
In short: as §1

[10] = tested on: Verconica persica (VERPE); assay: Pre-emergence herbicidal action against VERPE
In short: as §1

Viola tricolor (VIOTR) [11] = assay: Pre-emergence herbicidal action against VIOTR
In short: as §1

[12] = tested on: Alopecurus myosuroides (ALOMY); assay: Post-emergence herbicidal action against ALOMY; conditions: visual rating about 3 weeks after treatment vs untreated controls (100% = plants have died, 0% = like control plants)
In short: (§2)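 Doses of 320 g/ha or lower, suffixes a, b and c marking different dosages, were applied post-emergence at the one-leaf stage in 600 l/ha water with 0.5% additive. Damage was assessed visually after about 3 weeks in the greenhouse.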

[13] = tested on: Amaranthus retroflexus (AMARE); assay: Post-emergence herbicidal action against AMARE
In short: as §2

Avena fatua (AVEFA) [14] = assay: Post-emergence herbicidal action against AVEFA; conditions: visual rating about 3 weeks after treatment
In short: as §2

[15] = tested on: Echinochloa crus-galli (ECHCG); assay: Post-emergence herbicidal action against ECHCG
In short: as §2

[16] = tested on: Matricaria inodora (MATIN); assay: Post-emergence herbicidal action against MATIN; conditions: dosage 320 g/ha
In short: as §2

[17] = tested on: Pharbitis purpurea (PHBPU); assay: Post-emergence herbicidal action against PHBPU
In short: as §2

Setaria viridis (SETVI) [18] = assay: Post-emergence herbicidal action against SETVI
In short: as §2

[19] = tested on: Verconica persica (VERPE); assay: Post-emergence herbicidal action against VERPE
In short: as §2

Viola tricolor (VIOTR) [20] = assay: Post-emergence herbicidal action against VIOTR
In short: as §2

Oryza sativa (ORYSA) = conditions: crop plant compatibility
In short: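 Effects were read visually as % versus untreated controls (0% = no effect, 100% = death) about 3 weeks post-treatment. Application was a post-emergence spray at the one-leaf stage of WP/EC formulations with 0.5% additive at 600 l/ha. Different dosages are denoted a, b and c.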

Lolium rigidum (LOLRI) [21] = assay: Pre-emergence herbicidal action against LOLRI
In short: as §1

[22] = tested on: Abutilon theophrasti (ABUTH); assay: Post-emergence herbicidal action against ABUTH; conditions: 80 g/ha, visual rating about 3 weeks after treatment vs untreated controls (100% = plants have died, 0% = like control plants)
In short: as §2

Lolium rigidum (LOLRI) [23] = assay: Post-emergence herbicidal action against LOLRI; conditions: dosage 80 g/ha
In short: as §2

[24] = tested on: Polygonum convolvulus (POLCO); assay: Post-emergence herbicidal action against POLCO; conditions: dosage 80 g/ha
In short: as §2

[25] = 80 g/ha, visual rating about 3 weeks after treatment vs untreated controls (100% = plants have died, 0% = like control plants)
[26] = 80 g/ha, effect in comparison to untreated controls

Structure (SMILES) | Pre-emergence action against ABUTH [1] [%] | Pre-emergence action against ALOMY ([2]; 80 g/ha) [%] | Pre-emergence action against ALOMY ([2]; 320 g/ha) [%] | Pre-emergence action against AMARE in % ([3]; 80 g/ha) [%] | Pre-emergence action against AMARE in % ([3]; 320 g/ha) [%] | Pre-emergence action against AVEFA in % (Avena fatua (AVEFA) [4]; 320 g/ha) [%] | Pre-emergence action against ECHCG in % ([5]; dosage 80 g/ha) [%] | Pre-emergence action against ECHCG in % ([5]; dosage 320 g/ha) [%] | Pre-emergence action against MATIN in % ([6]; dosage 320 g/ha) [%] | Pre-emergence action against PHBPU in % ([7]; dosage 80 g/ha) [%] | Pre-emergence action against PHBPU in % ([7]; dosage 320 g/ha) [%] | Pre-emergence action against POLCO in % ([8]; dosage 320 g/ha) [%] | Pre-emergence action against SETVI in % (Setaria viridis (SETVI) [9]; dosage 320 g/ha) [%] | Pre-emergence action against VERPE in % ([10]; dosage 320 g/ha) [%] | Pre-emergence action against VIOTR in % (Viola tricolor (VIOTR) [11]; 320 g/ha, Viola tricolor) [%] | Pre-emergence action against VIOTR in % (Viola tricolor (VIOTR) [11]; dosage 80 g/ha) [%] | Post-emergence action against ALOMY in % ([12]; 80 g/ha) [%] | Post-emergence action against AMARE in % [13, 25] [%] | Post-emergence action against ECHCG in % ([15]; dosage 80 g/ha) [%] | Post-emergence action against SETVI in % (Setaria viridis (SETVI) [18]; dosage 80 g/ha) [%] | further results
Cc1cccnc1-n1nc(OCC(=O)O)c(Br)c1-c1cncc(F)c1 [Example I-204] | 80 | 90 | 100 | 90 | 100 | 80 | 90 | 100 | 90 | 90 | 90 | 90 | 100 | 100 | 100 | 100 | 90 | 80 | 80 | 90 | Pre-emergence action against POLCO in % ([8]; dosage 80 g/ha): 90%; Pre-emergence action against SETVI in % (Setaria viridis (SETVI) [9]; dosage 80 g/ha): 90%; Post-emergence action against ALOMY in % ([12]; 320 g/ha): 90%; Post-emergence action against AMARE in % ([13]; 320 g/ha, visual rating about 3 weeks after treatment): 80%; Post-emergence action against AVEFA in % (Avena fatua (AVEFA) [14]; 320 g/ha): 80%; Post-emergence action against ECHCG in % ([15]; dosage 320 g/ha): 80%; Post-emergence action against MATIN in % [16]: 80%; Post-emergence action against PHBPU in % ([17]; dosage 320 g/ha): 80%; Post-emergence action against SETVI in % (Setaria viridis (SETVI) [18]; dosage 320 g/ha): 90%; Post-emergence action against VERPE in % ([19]; 320 g/ha, VERPE): 90%; Post-emergence action against VERPE in % ([19]; dosage 80 g/ha): 90%; Post-emergence action against VIOTR in % (Viola tricolor (VIOTR) [20]; 80 g/ha): 80%; Post-emergence action against VIOTR in % (Viola tricolor (VIOTR) [20]; 320 g/ha): 80%; Post-emergence action against ORYSA in % (Oryza sativa (ORYSA); [26]): 0%
O=C(O)COc1nn(-c2ccccn2)c(-c2cncc(F)c2)c1Br [Example I-84] | 80 | 80 | 100 | 80 | 100 | 90 | 80 | 100 | 90 | 90 | 90 | 90 | 100 | 100 | 100 | 90 | 80 | 90 | 80 | 80 | Pre-emergence action against AVEFA in % (Avena fatua (AVEFA) [4]; 80 g/ha): 80%; Pre-emergence action against LOLRI in % (Lolium rigidum (LOLRI) [21]; dosage 80 g/ha): 90%; Pre-emergence action against LOLRI in % (Lolium rigidum (LOLRI) [21]; dosage 320 g/ha): 100%; Pre-emergence action against MATIN in % ([6]; dosage 80 g/ha): 90%; Pre-emergence action against VERPE in % ([10]; dosage 80 g/ha): 90%; Post-emergence action against ABUTH in % [22]: 80%; Post-emergence action against AVEFA in % (Avena fatua (AVEFA) [14]; 80 g/ha): 80%; Post-emergence action against LOLRI in % (Lolium rigidum (LOLRI) [23]): 90%; Post-emergence action against PHBPU in % ([17]; dosage 80 g/ha): 90%; Post-emergence action against POLCO in % [24]: 90%; Post-emergence action against VERPE in % ([19]; dosage 80 g/ha): 80%; Post-emergence action against ORYSA in % (Oryza sativa (ORYSA); 20 g/ha, effect vs untreated controls): 0%; Post-emergence action against ORYSA in % (Oryza sativa (ORYSA); [26]): 10%
